# Data published in article PMC7212882, “Efficacy and pharmacodynamics of niraparib in BRCA-mutant and wild-type intracranial triple-negative breast cancer murine models” (Neuro-oncology Advances, 2019).
# Like-named read-outs stand apart in the source and are kept apart here. Marks after values point to notes of the source that are not given here.
# Legend:
# [1] = mouse, in vivo
# PARP1/2 = conditions: read-out: in vitro IC50s; dual PARP1/2 inhibitor; cited from earlier work
# SUM149 [2] = conditions: read-out: 5–7 day CC50; cited from earlier work
# MDA-MB-436 [3] = system: MDA-MB-436
# Protocol: (§1) All animal studies protocols were approved by the University of North Carolina (UNC), Chapel Hill Institutional Animal Care and Use Committee, executed by the UNC Animal Studies Core, and performed as described previously.[23],[27] For IC injections, cells were harvested in log-phase growth and suspended in Hank's Balanced Salt Solution + 0.5% FBS. Eight- to 10-week Foxn1 nu/nu female mice (UNC Animal Studies Core) were implanted with 200 000 cells/5 µl of suspension through stereotactic IC injection in the right striatum. Animal weights were collected from injection to death 3 times weekly. To determine tumor volumes, mice were anesthetized, injected intraperitoneally with D-luciferin dissolved in phosphate-buffered saline (150 mg/kg; Caliper Life Sciences, Hopkinton, MA), and then imaged by IVIS Lumina camera (Caliper Life Sciences). Images were analyzed with Living Image 4.0 software (Caliper Life Sciences). All values were corrected for background and recorded as photons/s.
# (§2) For efficacy studies, mice were given a daily oral gavage of 50 mg/kg niraparib or vehicle (0.5% methylcellulose). To determine median survival, animals were sacrificed when weights decreased […] of an individual mouse’s maximum weight. For pharmacodynamic and pharmacokinetic studies, mice were grouped and treated as in efficacy studies for 2 weeks. At 4 h from last niraparib dose, IC tumor, peri-tumoral tissue (2 mm around the perimeter of a tumor), and contralateral brain were dissected, snap frozen, and stored frozen for each mouse and stored at –80°C.
# (§3) The Kaplan–Meier method and log-rank test were used to estimate and compare median survival between treatment groups.
# (§4) Both fold change in tumor volumes and weight over time were determined relative to treatment start date. Linear mixed models, with a random intercept and slope, were used to evaluate changes over time, overall and between groups (SAS, v9.3)
# MDA-MB-231Br = conditions: intracranial MDA-MB-231Br
# Protocol: as §1, §2, §3, §4
# SUM149 [4] = system: SUM149
# Protocol: as §1, §2, §3, §4
# PARP [5] = conditions: MDA-MB-436 cells in vitro; vehicle 3821.1; P = .034
# Protocol: (§5) 25–50 mg of tumor tissue were homogenized per protocol, and lysates were used to quantify PAR (pg/ml) using a chemiluminescent enzyme-linked immunosorbent assay (ELISA) in comparison to provided standards (Trevigen, HT PARP in vivo Pharmacodynamic Assay II, #4520-096-K). PAR values were normalized across models to 100 µg of lysate.
# (§6) A 2-way ANOVA with Tukey’s test and P-value correction for multiple comparisons was used to compare tissue levels of niraparib (pharmacokinetics) or PAR (pharmacodynamics). A t-test was used to compare PAR levels in MDA-MB-436 cells treated in vitro (GraphPad Prism, v7.04)
# PARP [6] = conditions: in vivo, niraparib daily 2 weeks
# Protocol: as §2, with “For efficacy studies, treatment started at day 7 for MDA-MB-231Br, day 14 for SUM149, and day 14 for MDA-MB-436. […] For efficacy” for “For efficacy”
# as §5, §6
# MDA-MB-436 [7] = conditions: read-out: 5–7 day CC50; cited from earlier work
# [8] = system: cells with BRCA1/BRCA2 deficiencies; conditions: read-out: in vitro CC50; cited from earlier work
# MDA-MB-436 [9] = conditions: subcutaneous flank model, female nude mice, 100 mg/kg once daily or 50 mg/kg twice daily; cited from earlier work
structure (smiles),measurement,setting,value
"NC(=O)c1cccc2cn(-c3ccc([C@@H]4CCCNC4)cc3)nc12 [niraparib, 2-{4-[(3S)-piperidin-3-yl]phenyl}-2H-indazole-7-carboxamide]",tolerability,[1],well tolerated
same,CC50,SUM149 [2],24 nM
same,body weight,"MDA-MB-436 [3]; intracranial MDA-MB-436, 50 mg/kg daily, control mice lost weight, P < .0001",maintained normal weight
same,mice alive at day 70,"MDA-MB-436 [3]; intracranial MDA-MB-436, 50 mg/kg daily, day 70, end of study",100%
same,suppression of tumor bioluminescence,"MDA-MB-436 [3]; intracranial MDA-MB-436, 50 mg/kg daily, for the extent of the experiment",greater than 90%
same,increase in median survival,"MDA-MB-436 [3]; intracranial MDA-MB-436, 50 mg/kg daily, study ended day 70, untreated median 50 days, P < .0001",at least 20 days
same,increase over untreated median survival,"MDA-MB-436 [3]; intracranial MDA-MB-436, 50 mg/kg daily, untreated median 50 days",more than 40%
same,average tumor bioluminescence,"MDA-MB-436 [3]; intracranial MDA-MB-436, day 35, after 3 weeks of treatment, control 1.15 × 10^9, P < .0001",9.56 × 10^7 photons/s
same,median survival,"MDA-MB-231Br; 50 mg/kg daily oral gavage, P = .21 vs vehicle (23 days)",22 days
same,weight changes vs vehicle,"MDA-MB-231Br; 50 mg/kg daily, P = .21",did not differ significantly
same,tumor volumes measured by luciferase activity vs vehicle,"MDA-MB-231Br; 50 mg/kg daily, P = .7",did not differ significantly
same,median survival,"SUM149 [4]; intracranial SUM149, 50 mg/kg daily oral gavage, P = .30 vs vehicle (33 days)",34 days
same,tumor volumes measured by luciferase activity vs vehicle,"SUM149 [4]; intracranial SUM149, 50 mg/kg daily, P = .06",did not differ significantly
same,weight changes vs vehicle,"SUM149 [4]; intracranial SUM149, 50 mg/kg daily, P = .14",did not differ significantly
same,"PAR levels, mean",PARP [5],248.2* picogram PAR per microgram tissue
same,"PAR levels, mean","PARP [6]; intracranial MDA-MB-436 tumors, vehicle 195.2, P = .99",145.7 picogram PAR per microgram tissue
same,"PAR levels, mean","PARP [6]; intracranial SUM149 tumors, vehicle 4054.5, P = .0027",433.1* picogram PAR per microgram tissue
same,CC50,MDA-MB-436 [7],18 nM
same,CC50,[8],10 to 100 nM
same,in vivo tumor growth,MDA-MB-436 [9],inhibited
